Reference: the METLIN SMRT retention time set (Domingo-Almenara et al. 2019)

Assay: gradient 5% acetonitrile 3 min, to 50% in 2 min, to 85% in 15 min, held 3 min, 100 µL/min
Details: column: Zorbax Extend-C18 2.1 x 50 mm; eluents: water / acetonitrile, 0.1% formic acid
Summary of the method: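 The mobile phases were water and acetonitrile, each with 0.1% formic acid, pumped at 100 μL/min through a Zorbax Extend-C18 column (2.1 × 50 mm, 1.8 μm). Pure standards were injected as mixtures of ~100 molecules and detected by a quadrupole time-of-flight mass spectrometer in positive and negative ionization mode. Retention time came from computationally picked adduct peaks, each inspected by hand.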

`O=C(c1ccoc1)N1CC(N(Cc2ccncc2)CC2CC2)C1` gave an RP-LC retention time of 593 s.
In the case of `CCn1c(=O)n(CC(=O)NCCC(C)C)c(=O)c2cnc(-c3ccccc3)nc21`, the RP-LC retention time is reported as 678 s.
With `O=C(c1ccc(F)c(Cl)c1)N1CCC2(CC1)N=C(c1ccccc1)NO2` the RP-LC retention time was 800 s.
Work on `O=c1nc(-c2ccccc2)c2ccccc2[nH]1` yielded an RP-LC retention time of 618 s.
Work on `COc1ccc(C(=O)Nc2nc(CC(=O)Nc3nc4c(C)cccc4s3)cs2)cc1` yielded an RP-LC retention time of 1010 s.
For `CC(C)c1nc(-n2cccc2)sc1C(=O)NCCc1ccc(S(N)(=O)=O)cc1`, the RP-LC retention time was 924 s.
Compound `O=C(NC1CCCCC1)N1CCN(c2ncccc2-c2nnc(C3CC3)o2)CC1` has an RP-LC retention time of 745 s.
Compound `CCCNC(=O)C1CCCN(c2nnc3c(Cl)cccn23)C1` (configuration not stated) has an RP-LC retention time of 571 s.
For `CC1=C(c2ccc(C)cc2)S(=O)(=O)N=C1N1CCCN(C(=O)c2cccc(C)c2)CC1`, the RP-LC retention time was 898 s.
Work on `CSc1ccc(-c2nc3nc(C)cc(C)n3c2Nc2ccccc2C)cc1` yielded an RP-LC retention time of 785 s.
With `COc1ccc(Cc2nc(-c3ccc4c(c3)nc(C)c(=O)n4C)no2)cc1` the RP-LC retention time was 927 s.
For `Cc1cnn(CC(=O)N2CCc3nn(C)c(=O)n3CC2)c1`, the RP-LC retention time was 577 s.
In the case of `CCc1ccc(CNC(=O)Cn2c(CC)nc3c(c2=O)CN(Cc2ccccc2)CC3)cc1`, the RP-LC retention time is reported as 707 s.
For `CCn1cc2c3c(cccc31)CN(C(=O)c1ccc(Br)o1)CC2`, the RP-LC retention time was 1050 s.
Compound `COCC1CCN(C(=O)CCC2CCN(c3cc(NC4CC4)ncn3)CC2)CC1` has an RP-LC retention time of 636 s.
Work on `CCC(=O)N1CCc2cc(N3CC(C(=O)Nc4cccc(SC)c4)CC3=O)ccc21` (configuration not stated) yielded an RP-LC retention time of 789 s.
For `Cc1ncsc1CN1CCC2(CC1)c1[nH]c3ccccc3c1CCN2C`, the RP-LC retention time was 538 s.
`CCOc1ccc2cccc(NC(=O)Cc3cccc(OC)c3)c2n1` gave an RP-LC retention time of 1120 s.
Compound `CCN(CC)c1nc2cc(C(=O)OC)ccc2c(=O)n1Cc1ccc(F)cc1` has an RP-LC retention time of 1180 s.
`Cc1ccc2c(Nc3ccc(F)cc3C)c(-c3nc(C)no3)cnc2n1` gave an RP-LC retention time of 756 s.
`COc1ccccc1-n1ncc2c(C(C)C)nnc(SCC(=O)NCc3ccco3)c21` gave an RP-LC retention time of 729 s.
`CC(=O)Nc1ccc(C2=NN(C(C)=O)C(c3ccc4c(c3)OCO4)C2)cc1` (configuration not stated) gave an RP-LC retention time of 666 s.
Compound `CCC(C(=O)NCCCN1CCOCC1)n1c2ccccc2c2cnn(C)c(=O)c21` (configuration not stated) has an RP-LC retention time of 609 s.
Work on `O=C(Cc1ccsc1)NCCC1CCN(C(=O)Nc2cc(F)cc(F)c2)CC1` yielded an RP-LC retention time of 853 s.
In the case of `Cc1ccc2c(c1)C(=O)NC1(CCN(C(=O)Cc3ccc(Cl)cc3)CC1)N2C`, the RP-LC retention time is reported as 850 s.
`Cc1ccc(CN2C(=O)COC[C@H]2C(=O)NCc2ccco2)cc1` showed an RP-LC retention time of 737 s.
`O=C(Cn1cnc2c(nc3n2CCCCC3)c1=O)N1CCN(c2ccc(Cl)cc2)CC1` gave an RP-LC retention time of 750 s.
For `O=C(c1cncc(Br)c1)N1CCC(Cc2nc(-c3ccc(Cl)cc3)no2)CC1`, the RP-LC retention time was 1050 s.
With `Cc1nnc(N2CCCC(C(=O)NCc3ccco3)C2)c2nn(-c3ccccc3)c(C)c12` (configuration not stated) the RP-LC retention time was 680 s.
`COc1ccc(NS(=O)(=O)c2c(C)sc(C)c2-c2cc(C(F)(F)F)on2)cc1OC` gave an RP-LC retention time of 1020 s.
With `O=S(=O)(NCC1(c2cccs2)CCCC1)c1cccnc1` the RP-LC retention time was 827 s.
`CCc1ccc(C2=Nc3cccnc3N(CC(=O)Nc3ccc(C(C)=O)cc3)C(=O)C2)cc1` gave an RP-LC retention time of 972 s.
With `CCn1cc(C(=O)Nc2cccc(Cl)c2)c(S(=O)(=O)N2CCSCC2)n1` the RP-LC retention time was 890 s.
Work on `Cc1cc2nn(CC(=O)Nc3ccccc3)c(=O)n2c(-c2ccc(F)cc2)n1` yielded an RP-LC retention time of 800 s.
Work on `NC(=O)CSc1nnc(N2CCN(C(=O)c3cc4ccccc4o3)CC2)s1` yielded an RP-LC retention time of 635 s.
`COc1ccc(-c2csc3c(=O)n(CC(=O)N4CCCC4)cnc23)cc1` gave an RP-LC retention time of 760 s.
`Cn1nccc1C(=O)Nc1ccsc1-c1nc(-c2ccc(Cl)cc2)no1` showed an RP-LC retention time of 1430 s.
With `C=CCn1nnc(NCc2ccc(-c3ccc(Cl)cc3Cl)o2)n1` the RP-LC retention time was 1160 s.
`CC(=O)c1cccc(NC(=O)Cn2cccc2-c2nc(-c3ccccc3)no2)c1` showed an RP-LC retention time of 988 s.
Work on `CCNc1cc(N2CCC(CCC(=O)NCc3nc4ccccc4n3C)CC2)ncn1` yielded an RP-LC retention time of 554 s.
With `COc1ccc(Cl)c2c(=O)c3c([nH]c12)CCN(CC(=O)Nc1ccccc1Cl)C3` the RP-LC retention time was 638 s.
`C=Cc1ccc(Cn2nc(-c3nc(-c4ccc(F)cc4)no3)ccc2=O)cc1` showed an RP-LC retention time of 1200 s.
In the case of `Cc1ccc(-c2noc(CN3C(=O)COc4cc(Cl)ccc43)n2)cc1C`, the RP-LC retention time is reported as 1200 s.
In the case of `COCCNC(=O)c1ccc(-c2nc(CSc3ccccc3)c(C)o2)cc1`, the RP-LC retention time is reported as 882 s.
`CCOc1ccccc1-c1noc(-c2nnn(Cc3nc(-c4cccc(C)c4)oc3C)c2C)n1` showed an RP-LC retention time of 1260 s.
With `COc1ccccc1CNC(=O)C1CCCN(C(=O)C2Sc3ccccc3NC2=O)C1` (configuration not stated) the RP-LC retention time was 736 s.
Work on `CCNC(=O)C1CCCN(c2nc3ncn(CC(=O)N4CCc5ccccc5C4)c(=O)c3s2)C1` (configuration not stated) yielded an RP-LC retention time of 690 s.
Work on `COc1ccc(N2C(=O)CC(N3CCC(C(N)=O)CC3)C2=O)c(OC)c1` (configuration not stated) yielded an RP-LC retention time of 578 s.
`CCN1CCN(C(=O)C2CCN(S(=O)(=O)c3ccc4c(c3)sc(=O)n4C(C)C)CC2)CC1` gave an RP-LC retention time of 650 s.
In the case of `COc1ccc(N2C(=O)N[C@H]3C[C@@]2(C)Oc2c(OC)cccc23)c(OC)c1`, the RP-LC retention time is reported as 712 s.
`CCCCCOC(=O)CSc1nnc(-c2ccc(Cl)cc2Cl)o1` gave an RP-LC retention time of 1320 s.
For `Cc1cccc(OCc2nc(-c3ccc4c(c3)nnn4CCC(=O)N3CCCC3)no2)c1`, the RP-LC retention time was 923 s.
With `Cc1ccc(Cn2c(=O)n(CCNC(=O)C3CCCC3)c3ncccc32)cc1` the RP-LC retention time was 836 s.
`COc1cc(CN(C(=O)c2ccc(OC(C)C)cc2)C2CCS(=O)(=O)C2)cc(OC)c1OC` (configuration not stated) gave an RP-LC retention time of 868 s.
In the case of `COc1ccccc1OCC(O)Cn1c(C2CC(=O)N(c3ccccc3)C2)nc2ccccc21` (configuration not stated), the RP-LC retention time is reported as 736 s.
Compound `O=C(NCC1(c2cccs2)CCOCC1)c1cccs1` has an RP-LC retention time of 705 s.
Work on `Cc1ccccc1OCc1ccc(-c2nc(C#N)c(NCCN(C)C)o2)o1` yielded an RP-LC retention time of 707 s.
For `CN1C(=O)c2cccn2CC1CNS(=O)(=O)c1ccc(F)cc1` (configuration not stated), the RP-LC retention time was 679 s.
In the case of `Cc1ccc2c(c1)N(S(C)(=O)=O)CCC(C(=O)Nc1ccccc1)O2` (configuration not stated), the RP-LC retention time is reported as 892 s.
Compound `O=C(NCC1(CO)CC1)c1c(F)cccc1Cl` has an RP-LC retention time of 609 s.
For `Cc1ccc2c(C(=O)NCCc3cccs3)cc(NC(=O)C3CCC3)cc2n1`, the RP-LC retention time was 660 s.
Work on `COc1cccc(/C=C/c2nc(-c3ccc4oc(C)nc4c3)no2)c1` yielded an RP-LC retention time of 1110 s.
`CC(C)CNC(=O)N1CCCC(Cc2nncn2C)C1` (configuration not stated) showed an RP-LC retention time of 550 s.
`CCc1nncn1C1CCN(S(=O)(=O)c2ccc(F)c(Cl)c2)CC1` gave an RP-LC retention time of 734 s.
With `Cc1cnc(C2CN(C3CCCCCC3)C2)n1Cc1cccnc1` the RP-LC retention time was 608 s.
Work on `O=C(CSc1nc(=O)[nH]c2c1CCCC2)N1CCCc2ccccc21` yielded an RP-LC retention time of 729 s.
`CCn1cc(-c2nc(CC(=O)Nc3ccc(C)cc3F)cs2)c2cccnc21` gave an RP-LC retention time of 865 s.
